# Publication PMC8464850, “Sulfonium Ligands of the α7 nAChR” (Molecules, 2021)
# Tests used:
# β3α4 β2α6β2 = target: T1, β3α4 β2α6β2 (Homo sapiens, UniProt P17787+P43681+Q15825); assay: Activation of heteromeric nAChR by S1: β3α4β2α6β2 concatamer; assay type: cell-based
# T1 construct: expressed in transfected cells; host or cells: Xenopus laevis oocytes (injected RNA)
# Text: (§1) Concatamers were used in order to obtain heteromeric receptors with known subunit composition. The β2-6-α4 concatamer was co-expressed with monomeric α4, β2, or α5 to obtain receptors with the composition α4(3)β2(2), α4(2)β2(3), or α4(2)β2(2)α5, respectively. A concatamer of five linked subunits was used to obtain the β3α4 β2α6β2 receptors. The α3β4 receptors were formed from the co-expression of α3 and β4 subunit monomers at equal ratios. Note that the data were initially measured relative to internal ACh control responses for each oocyte (Methods). Responses were subsequently adjusted for the relative values of the ACh controls and the ACh maximum responses for each of the various subtypes, determined in previous experiments.
# (§2) Figure 6 Activation of heteromeric neuronal nAChR by S1. […] Data are the average peak currents (n = 6–8 oocytes ± SEM), measured relative to initial ACh control responses for each oocyte (concentrations listed in Methods). Responses were subsequently adjusted for the relative values of the ACh controls and the ACh maximum responses for each of the various subtypes, determined in previous experiments. […]
# (§3) Solutions were applied from 96-well plates via disposable tips. […] The responses were calculated as both peak current amplitudes and net charge, as previously described. […] Multi-cell averages were calculated for comparisons of complex responses. […]
# α4β2α5 = target: T2, α4β2α5 (Homo sapiens, UniProt P17787+P43681); assay: Activation of heteromeric nAChR by S1: α4(2)β2(2)α5; assay type: cell-based
# T2 construct: expressed in transfected cells; host or cells: Xenopus laevis oocytes (injected RNA)
# T2 sequence (P17787 26-502): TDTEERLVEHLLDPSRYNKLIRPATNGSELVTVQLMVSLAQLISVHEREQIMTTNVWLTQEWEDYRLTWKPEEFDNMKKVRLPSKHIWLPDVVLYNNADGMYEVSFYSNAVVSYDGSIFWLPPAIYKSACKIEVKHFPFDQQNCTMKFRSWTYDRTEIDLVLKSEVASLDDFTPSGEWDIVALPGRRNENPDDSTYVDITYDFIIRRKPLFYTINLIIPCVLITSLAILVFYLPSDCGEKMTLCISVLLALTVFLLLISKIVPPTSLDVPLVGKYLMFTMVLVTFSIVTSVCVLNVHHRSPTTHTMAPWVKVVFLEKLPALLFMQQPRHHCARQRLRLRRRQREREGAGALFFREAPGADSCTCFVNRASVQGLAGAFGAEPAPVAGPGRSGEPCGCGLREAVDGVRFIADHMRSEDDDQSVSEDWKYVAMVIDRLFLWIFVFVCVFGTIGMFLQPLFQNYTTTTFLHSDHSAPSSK
# T2 sequence (P43681 29-627 limits assumed): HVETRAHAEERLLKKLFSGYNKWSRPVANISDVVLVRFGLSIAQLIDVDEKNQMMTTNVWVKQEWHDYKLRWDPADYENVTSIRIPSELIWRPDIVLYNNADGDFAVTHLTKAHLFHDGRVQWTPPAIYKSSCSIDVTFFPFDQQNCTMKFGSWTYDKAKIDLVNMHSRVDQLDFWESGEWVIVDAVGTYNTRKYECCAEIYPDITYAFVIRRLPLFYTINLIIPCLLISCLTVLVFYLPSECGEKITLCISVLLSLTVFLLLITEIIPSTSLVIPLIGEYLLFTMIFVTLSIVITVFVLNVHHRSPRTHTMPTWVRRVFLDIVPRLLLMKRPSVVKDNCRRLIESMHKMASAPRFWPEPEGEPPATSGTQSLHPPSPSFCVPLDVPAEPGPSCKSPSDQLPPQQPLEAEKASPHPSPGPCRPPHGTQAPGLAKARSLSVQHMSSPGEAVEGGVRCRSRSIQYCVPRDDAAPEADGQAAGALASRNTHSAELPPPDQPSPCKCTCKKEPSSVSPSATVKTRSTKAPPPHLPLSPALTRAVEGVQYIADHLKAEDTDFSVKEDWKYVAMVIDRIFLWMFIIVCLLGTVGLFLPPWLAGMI
# Text: as §1, §2, §3
# [1] = tested on: α4β2 subtypes formed with concatamers; assay: Inhibition of ACh control peak-current responses of α4-containing nAChR formed with concatamers; assay type: cell-based, human; settings: 100 µM compound, Figure 7B
# Experimental: Although none of the other sulfonium compounds activated neuronal heteromeric receptors, several of them produced inhibition of ACh-evoked responses. Shown in Figure 7A are concentration-response studies for the compounds that were active antagonists of α3β4 nAChR (Table 3). Some compounds were also tested as antagonists of α4β2 subtypes formed with concatamers (Figure 7B).
# Figure 7 Inhibition of heteromeric nAChR by sulfonium compounds. (A) Inhibition of α3β4 100 µM ACh-evoked peak currents by the co-application of the sulfonium compounds. Data are the averaged of six to eight oocytes (±SEM). […]
# Solutions were applied from 96-well plates via disposable tips. […] The responses were calculated as both peak current amplitudes and net charge, as previously described. Data were collected at 50 Hz, filtered at 20 Hz for α7 receptors or filtered at 5 Hz for heteromeric nAChR, and analyzed by Clampfit (Molecular Devices, San Jose, CA, USA) and Excel (Microsoft, Redmond, WA, USA). Data were expressed as means ± SEM from at least four oocytes for each experiment and plotted with Kaleidagraph 4.5.2 (Abelbeck Software, Reading, PA, USA). Multi-cell averages were calculated for comparisons of complex responses. Averages of the normalized data were calculated for each of the 10,322 points in each of the 206.44 s traces (acquired at 50 Hz), as well as the standard errors for those averages.
# [2] = peak currents relative to ACh maximum
# T1 sequence (P43681 29-627 limits assumed): as above
# T1 sequence (P17787 26-502): as the sequence (P17787 26-502) above
# T1 sequence (Q15825 26-494): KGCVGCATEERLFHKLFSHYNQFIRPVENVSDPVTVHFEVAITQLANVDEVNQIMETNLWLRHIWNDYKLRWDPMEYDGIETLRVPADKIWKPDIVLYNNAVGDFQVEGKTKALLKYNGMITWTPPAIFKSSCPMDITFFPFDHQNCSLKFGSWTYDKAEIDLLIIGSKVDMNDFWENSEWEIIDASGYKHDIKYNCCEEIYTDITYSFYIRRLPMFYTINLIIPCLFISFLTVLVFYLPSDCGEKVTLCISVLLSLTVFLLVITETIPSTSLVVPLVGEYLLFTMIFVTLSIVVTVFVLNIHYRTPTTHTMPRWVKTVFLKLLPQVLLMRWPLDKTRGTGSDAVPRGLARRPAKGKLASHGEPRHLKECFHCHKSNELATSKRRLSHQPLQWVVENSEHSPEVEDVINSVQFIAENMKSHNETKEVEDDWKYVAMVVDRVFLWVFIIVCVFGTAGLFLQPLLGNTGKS
smiles,measurement,setting,value
"C[S+](C)C.[I-] [Compound S1, trimethylsulfonium iodide]",IMax (S1 Activation),β3α4 β2α6β2; [2],0.71 ± 0.35
same,EC50,"β3α4 β2α6β2; peak currents, unit inferred",333 ± 51 µM
same,IMax (S1 Activation),α4β2α5; [2],0.50 ± 0.03
same,EC50,"α4β2α5; peak currents, unit inferred",114 ± 25 µM
"C[S+](C)c1cc([N+](=O)[O-])ccc1O.[Br-] [Compound S10, (2-hydroxy-5-nitrophenyl)dimethylsulfonium bromide]",relative antagonist activity,[1],least
